The IC50 is the concentration that inhibits the measured activity by half. Low readings indicate higher potency, high ones lower potency.

Molecules are shown by their SMILES.

Results on two molecules are retold here after BindingDB's records for doi:10.1021/acs.jmedchem.6b00788 (University of Pittsburgh, 2017).

A short description of the assay: Inhibition of TNFalpha-PLAP (unknown origin).

The molecule `COc1cc(O)c2c(c1)/C=C/C[C@H](O)[C@H](O)C(=O)/C=C(/C)C[C@H](C)OC2=O` came in with an IC50 greater than 10000 nM.
`COc1cc(O)c2c(c1)/C=C/C[C@H](O)[C@H](O)C(=O)/C(F)=C\C[C@H](C)OC2=O` yielded an IC50 of 36 nM.
